According to US9707233B2, “Heterocyclylamines as PI3K inhibitors” (Incyte Corporation, priority 2011, dated 2017):
pIC50: −log10 of the molar value.

Molecular target: PI3Kδ (p110δ/p85α) (Homo sapiens (Human), UniProt O00329)
Experiment: PI3Kδ scintillation proximity assay (Example A3)
Format: biochemical
Settings: 20 μM ATP, 20 μM PIP2, 4 nM PI3Kδ; read-out: PI3Kδ SPA IC50
How it was run: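 Human PI3Kδ (p110δ/p85α, 4 nM) with 20 μM PIP2 and 20 μM ATP plus [γ-33P]ATP in 20 mM MOPS pH 6.7, 10 mM MgCl2, 5 mM DTT, 0.03% CHAPS, 0.5% DMSO, room temperature. Reaction stopped with EDTA/excess ATP; product captured on WGA SPA beads and counted. IC50 from percent control activity vs log inhibitor.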

Sequence of PI3Kδ (p110δ/p85α) (O00329 whole entry): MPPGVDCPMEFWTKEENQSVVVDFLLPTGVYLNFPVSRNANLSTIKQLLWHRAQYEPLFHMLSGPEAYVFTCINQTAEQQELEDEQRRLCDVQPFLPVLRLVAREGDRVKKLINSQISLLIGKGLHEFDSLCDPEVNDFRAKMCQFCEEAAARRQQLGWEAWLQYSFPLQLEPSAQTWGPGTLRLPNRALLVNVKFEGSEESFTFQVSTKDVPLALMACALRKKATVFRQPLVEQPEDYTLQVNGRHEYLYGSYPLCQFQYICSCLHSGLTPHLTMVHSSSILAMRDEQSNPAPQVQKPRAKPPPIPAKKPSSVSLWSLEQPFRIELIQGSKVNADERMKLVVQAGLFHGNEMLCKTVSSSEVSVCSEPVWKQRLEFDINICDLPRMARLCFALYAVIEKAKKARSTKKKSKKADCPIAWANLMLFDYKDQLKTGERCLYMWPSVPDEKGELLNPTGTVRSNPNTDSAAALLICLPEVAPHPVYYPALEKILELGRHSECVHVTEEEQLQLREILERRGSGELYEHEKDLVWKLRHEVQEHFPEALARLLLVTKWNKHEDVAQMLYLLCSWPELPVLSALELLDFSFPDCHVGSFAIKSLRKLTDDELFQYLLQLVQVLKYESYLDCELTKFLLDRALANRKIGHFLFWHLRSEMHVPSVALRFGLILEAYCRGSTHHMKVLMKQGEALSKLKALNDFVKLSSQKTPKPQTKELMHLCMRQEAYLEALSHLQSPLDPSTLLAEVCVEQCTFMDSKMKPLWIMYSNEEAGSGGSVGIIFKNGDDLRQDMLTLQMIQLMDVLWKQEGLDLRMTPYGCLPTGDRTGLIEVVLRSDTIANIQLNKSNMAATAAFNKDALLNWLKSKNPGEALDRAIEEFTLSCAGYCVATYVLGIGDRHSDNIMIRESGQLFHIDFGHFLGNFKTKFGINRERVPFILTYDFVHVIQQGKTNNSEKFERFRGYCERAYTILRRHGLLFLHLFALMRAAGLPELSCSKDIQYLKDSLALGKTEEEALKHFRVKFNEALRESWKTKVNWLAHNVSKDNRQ
Sequence of PI3Kδ (p110δ/p85α) (P27986 whole entry partner): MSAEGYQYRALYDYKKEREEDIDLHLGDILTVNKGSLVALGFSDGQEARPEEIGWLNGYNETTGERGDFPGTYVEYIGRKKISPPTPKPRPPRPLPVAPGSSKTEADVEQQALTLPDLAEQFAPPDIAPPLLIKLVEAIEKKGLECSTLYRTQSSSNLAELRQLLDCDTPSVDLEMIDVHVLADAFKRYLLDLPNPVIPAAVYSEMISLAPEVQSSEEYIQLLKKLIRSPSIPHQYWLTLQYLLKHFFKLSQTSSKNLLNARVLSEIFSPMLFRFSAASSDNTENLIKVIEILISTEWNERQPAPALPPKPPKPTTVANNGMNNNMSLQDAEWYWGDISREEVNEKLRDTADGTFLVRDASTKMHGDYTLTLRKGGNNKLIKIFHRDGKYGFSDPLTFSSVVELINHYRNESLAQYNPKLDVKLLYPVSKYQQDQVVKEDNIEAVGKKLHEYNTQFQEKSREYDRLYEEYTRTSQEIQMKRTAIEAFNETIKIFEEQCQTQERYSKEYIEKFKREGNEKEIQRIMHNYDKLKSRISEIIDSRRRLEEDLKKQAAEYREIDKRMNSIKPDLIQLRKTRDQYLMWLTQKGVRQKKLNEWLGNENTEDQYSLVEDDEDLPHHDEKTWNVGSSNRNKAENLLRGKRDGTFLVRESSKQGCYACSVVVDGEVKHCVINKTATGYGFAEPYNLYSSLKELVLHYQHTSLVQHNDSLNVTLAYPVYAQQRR

| pIC50 | Compound |
| --- | --- |
| ≥ 8.00 | COc1c(C(C)n2nc(C)c3c(N)ncnc32)cc(Cl)c(C#N)c1C1CN(C(=O)OC(C)C)C1 (single isomer, unassigned) [Example 291, Isopropyl 3-{3-[1-(4-amino-3-methyl-1H-pyrazolo[3,4-d]pyrimidin-1-yl)ethyl]-5-chloro-6-cyano-2-methoxyphenyl}azetidine-1-carboxylate] |
| ≥ 8.00 | CCNC(=O)N1CC(c2c(C#N)c(Cl)cc(C(C)n3nc(C)c4c(N)ncnc43)c2OC)C1 (single isomer, unassigned) [Example 295, 3-{3-[1-(4-Amino-3-methyl-1H-pyrazolo[3,4-d]pyrimidin-1-yl)ethyl]-5-chloro-6-cyano-2-methoxyphenyl}-N-ethylazetidine-1-carboxamide] |
| ≥ 8.00 | COc1c(C(C)n2nc(C)c3c(N)ncnc32)cc(Cl)c(Cl)c1C1CN(C(C)C)C1 (single isomer, unassigned) [Example 299, 1-{1-[4,5-Dichloro-3-(1-isopropylazetidin-3-yl)-2-methoxyphenyl]ethyl}-3-methyl-1H-pyrazolo[3,4-d]pyrimidin-4-amine] |
| ≥ 8.00 | COc1c(C(C)n2nc(C)c3c(N)ncnc32)cc(Cl)c(Cl)c1C1CN(CCO)C1 (single isomer, unassigned) [Example 300, 2-(3-{3-[1-(4-Amino-3-methyl-1H-pyrazolo[3,4-d]pyrimidin-1-yl)ethyl]-5,6-dichloro-2-methoxyphenyl}azetidin-1-yl)ethano] |
| ≥ 8.00 | COc1c(C(C)n2nc(C)c3c(N)ncnc32)cc(Cl)c(Cl)c1C1CN(CC(C)(C)O)C1 (single isomer, unassigned) [Example 303, 1-(3-{3-[1-(4-Amino-3-methyl-1H-pyrazolo[3,4-d]pyrimidin-1-yl)ethyl]-5,6-dichloro-2-methoxyphenyl}azetidin-1-yl)-2-methylpropan-2-ol] |
| ≥ 8.00 | COc1c(C(C)n2nc(C)c3c(N)ncnc32)cc(Cl)c(Cl)c1C1CN(C2COC2)C1 (single isomer, unassigned) [Example 304, 1-{1-[4,5-Dichloro-2-methoxy-3-(1-oxetan-3-ylazetidin-3-yl)phenyl]ethyl}-3-methyl-1H-pyrazolo[3,4-d]pyrimidin-4-amine] |
| ≥ 8.00 | COc1c(C(C)n2nc(C)c3c(N)ncnc32)cc(Cl)c(Cl)c1C1CN(CC#N)C1 (single isomer, unassigned) [Example 305, (3-{3-[1-(4-Amino-3-methyl-1H-pyrazolo[3,4-d]pyrimidin-1-yl)ethyl]-5,6-dichloro-2-methoxyphenyl}azetidin-1-yl)acetonitrile] |
| ≥ 8.00 | COc1c(C(C)n2nc(C)c3c(N)ncnc32)cc(Cl)c(Cl)c1C1CN(C(C)=O)C1 (single isomer, unassigned) [Example 306, 1-{1-[3-(1-Acetylazetidin-3-yl)-4,5-dichloro-2-methoxyphenyl]ethyl}-3-methyl-1H-pyrazolo[3,4-d]pyrimidin-4-amine] |
| ≥ 8.00 | CCOc1c(C(C)n2nc(C)c3c(N)ncnc32)cc(C)c(C#N)c1C1CN(CC(C)(C)O)C1 (single isomer, unassigned) [Example 321, 4-[1-(4-amino-3-methyl-1H-pyrazolo[3,4-d]pyrimidin-1-yl)ethyl]-3-ethoxy-2-[1-(2-hydroxy-2-methylpropyl)azetidin-3-yl]-6-methylbenzonitrile] |
| ≥ 8.00 | CCOc1c(C(C)n2nc(C)c3c(N)ncnc32)cc(C)c(C#N)c1C1CN(C(=O)C(C)(C)O)C1 (single isomer, unassigned) [Example 322, 4-[1-(4-amino-3-methyl-1H-pyrazolo[3,4-d]pyrimidin-1-yl)ethyl]-3-ethoxy-2-[1-(2-hydroxy-2-methylpropanoyl)azetidin-3-yl]-6-methylbenzonitrile] |
| ≥ 8.00 | CCOc1c(C(C)n2nc(C)c3c(N)ncnc32)cc(C)c(C#N)c1C1CN(CCO)C1 (single isomer, unassigned) [Example 327, 4-[-1-(4-amino-3-methyl-1H-pyrazolo[3,4-d]pyrimidin-1-yl)ethyl]-3-ethoxy-2-[1-(2-hydroxyethyl)azetidin-3-yl]-6-methylbenzonitrile] |
| ≥ 8.00 | CCOc1c(C(C)n2nc(C)c3c(N)ncnc32)cc(Cl)c(C#N)c1-c1cncc(C#N)c1 (single isomer, unassigned) [Example 330, 5-{3-[1-(4-amino-3-methyl-1H-pyrazolo[3,4-d]pyrimidin-1-yl)ethyl]-5-chloro-6-cyano-2-ethoxyphenyl}nicotinonitrile] |
| ≥ 8.00 | CCOc1c(C(C)n2nc(C)c3c(N)ncnc32)cc(Cl)c(C#N)c1-c1cncc(C(=O)N(C)C)c1 (single isomer, unassigned) [Example 331, 5-{3-[1-(4-amino-3-methyl-1H-pyrazolo[3,4-d]pyrimidin-1-yl)ethyl]-5-chloro-6-cyano-2-ethoxyphenyl}-N,N-dimethylnicotinamide] |
| ≥ 8.00 | COc1c(C(C)n2nc(C)c3c(N)ncnc32)cc(Cl)c(C#N)c1-c1cncc(S(C)(=O)=O)c1 (single isomer, unassigned) [Example 332, 4-[1-(4-amino-3-methyl-1H-pyrazolo[3,4-d]pyrimidin-1-yl)ethyl]-6-chloro-3-methoxy-2-[5-(methylsulfonyl)pyridin-3-yl]benzonitrile] |
| ≥ 8.00 | CCOc1c(C(C)n2nc(C)c3c(N)ncnc32)cc(Cl)c(C#N)c1-c1ccnc(C(=O)N(C)C)c1 (single isomer, unassigned) [Example 334, 4-{3-[1-(4-amino-3-methyl-1H-pyrazolo[3,4-d]pyrimidin-1-yl)ethyl]-5-chloro-6-cyano-2-ethoxyphenyl}-N,N-dimethylpyridine-2-carboxamide] |
| ≥ 8.00 | CCOc1c(C(C)n2nc(C)c3c(N)ncnc32)cc(C)c(C#N)c1-c1cncc(S(C)(=O)=O)c1 (single isomer, unassigned) [Example 335, 4-[1-(4-amino-3-methyl-1H-pyrazolo[3,4-d]pyrimidin-1-yl)ethyl]-3-ethoxy-6-methyl-2-[5-(methylsulfonyl)pyridin-3-yl]benzonitrile] |
| ≥ 8.00 | CCOc1c(C(C)n2nc(C)c3c(N)ncnc32)cc(C)c(C#N)c1-c1ccnc(C(=O)N(C)C)c1 (single isomer, unassigned) [Example 340, 4-{3-[1-(4-amino-3-methyl-1H-pyrazolo[3,4-d]pyrimidin-1-yl)ethyl]-6-cyano-2-ethoxy-5-methylphenyl}-N,N-dimethylpyridine-2-carboxamide] |
| ≥ 8.00 | CCOc1c(C(C)n2nc(C)c3c(N)ncnc32)cc(Cl)c(C#N)c1C1CNC(=O)C1 (single isomer, unassigned) [Example 349, 4-[1-(4-amino-3-methyl-1H-pyrazolo[3,4-d]pyrimidin-1-yl)ethyl]-6-chloro-3-ethoxy-2-(5-oxopyrrolidin-3-yl)benzonitrile] |
| < 6.30 | CCOc1c(C(C)n2nc(C)c3c(N)ncnc32)cc(Cl)c(C#N)c1C1CNC(=O)C1 (single isomer, unassigned) [Example 350, 4-[1-(4-amino-3-methyl-1H-pyrazolo[3,4-d]pyrimidin-1-yl)ethyl]-6-chloro-3-ethoxy-2-(5-oxopyrrolidin-3-yl)benzonitrile] |
| 6.70 to 7.30 | CCOc1c(C(C)n2nc(C)c3c(N)ncnc32)cc(Cl)c(C#N)c1C1CNC(=O)C1 (single isomer, unassigned) [Example 351, 4-[1-(4-amino-3-methyl-1H-pyrazolo[3,4-d]pyrimidin-1-yl)ethyl]-6-chloro-3-ethoxy-2-(5-oxopyrrolidin-3-yl)benzonitrile] |

| Compound | pIC50 |
| --- | --- |
| CCN1CC(c2c(Cl)c(Cl)cc(C(C)n3nc(C)c4c(N)ncnc43)c2OC)C1 (single isomer, unassigned) [Example 298, 1-{1-[4,5-Dichloro-3-(1-ethylazetidin-3-yl)-2-methoxyphenyl]ethyl}-3-methyl-1H-pyrazolo[3,4-d]pyrimidin-4-amine] | ≥ 8.00 |
| CCOc1c(C(C)n2nc(C)c3c(N)ncnc32)cc(Cl)c(C)c1C1CNC(=O)C1 (single isomer, unassigned) [Example 310, 4-{3-[1-(4-amino-3-methyl-1H-pyrazolo[3,4-d]pyrimidin-1-yl)ethyl]-5-chloro-2-ethoxy-6-methylphenyl}pyrrolidin-2-one] | ≥ 8.00 |
| CCOc1c(C(C)n2nc(C)c3c(N)ncnc32)cc(Cl)c(C)c1C1CNC(=O)C1 (single isomer, unassigned) [Example 311, 4-{3-[1-(4-amino-3-methyl-1H-pyrazolo[3,4-d]pyrimidin-1-yl)ethyl]-5-chloro-2-ethoxy-6-methylphenyl}pyrrolidin-2-one] | ≥ 8.00 |
| CCOc1c(C(C)n2nc(C)c3c(N)ncnc32)cc(Cl)c(F)c1C1CNC(=O)C1 (single isomer, unassigned) [Example 345, 4-{3-[1-(4-amino-3-methyl-1H-pyrazolo[3,4-d]pyrimidin-1-yl)ethyl]-5-chloro-2-ethoxy-6-fluorophenyl}pyrrolidin-2-one] | 6.70 to 7.30 |
| CCOc1c(C(C)n2nc(C)c3c(N)ncnc32)cc(Cl)c(F)c1C1CNC(=O)C1 (single isomer, unassigned) [Example 346, 4-{3-[1-(4-amino-3-methyl-1H-pyrazolo[3,4-d]pyrimidin-1-yl)ethyl]-5-chloro-2-ethoxy-6-fluorophenyl}pyrrolidin-2-one] | ≥ 8.00 |
| CCOc1c(C(C)n2nc(C)c3c(N)ncnc32)cc(Cl)c(F)c1C1CNC(=O)C1 (single isomer, unassigned) [Example 347, 4-{3-[1-(4-amino-3-methyl-1H-pyrazolo[3,4-d]pyrimidin-1-yl)ethyl]-5-chloro-2-ethoxy-6-fluorophenyl}pyrrolidin-2-one] | ≥ 8.00 |
| CCOc1c(C(C)n2nc(C)c3c(N)ncnc32)cc(Cl)c(F)c1C1CNC(=O)C1 (single isomer, unassigned) [Example 348, 4-{3-[1-(4-amino-3-methyl-1H-pyrazolo[3,4-d]pyrimidin-1-yl)ethyl]-5-chloro-2-ethoxy-6-fluorophenyl}pyrrolidin-2-one] | 6.70 to 7.30 |
